# In ChEMBL document CHEMBL1932917, “4,5-dihydropyridazin-3-one derivatives as histamine H₃ receptor inverse agonists” (Bioorg Med Chem Lett, 2012):
# Assays:
# [1] = (§1) Oral bioavailability in rat at 5 mg/kg; format: ADME, organism-based; details: in vivo
# [2] = Half life in mouse liver microsomes; format: ADME, Microsome
# Cytochrome P450 1A2 = target: T1, Cytochrome P450 1A2 (Homo sapiens, UniProt P05177); assay: Inhibition of CYP1A2; format: ADME
# T1 sequence (P05177 whole entry): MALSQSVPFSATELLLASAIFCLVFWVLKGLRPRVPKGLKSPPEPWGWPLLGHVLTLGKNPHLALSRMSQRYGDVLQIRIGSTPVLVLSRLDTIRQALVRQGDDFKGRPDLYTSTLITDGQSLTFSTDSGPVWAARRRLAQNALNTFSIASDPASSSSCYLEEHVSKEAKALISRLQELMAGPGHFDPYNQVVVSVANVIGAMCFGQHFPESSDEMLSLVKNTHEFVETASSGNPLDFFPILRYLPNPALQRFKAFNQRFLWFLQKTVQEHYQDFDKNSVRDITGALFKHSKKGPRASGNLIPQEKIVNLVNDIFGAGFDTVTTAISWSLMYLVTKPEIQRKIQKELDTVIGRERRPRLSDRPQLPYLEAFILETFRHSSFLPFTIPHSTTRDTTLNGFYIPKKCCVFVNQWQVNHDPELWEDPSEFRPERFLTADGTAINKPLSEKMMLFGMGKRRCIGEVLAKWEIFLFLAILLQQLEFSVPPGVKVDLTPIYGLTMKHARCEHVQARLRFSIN
# [3] = Half life in human liver microsomes; format: ADME, Microsome
# [4] = (§2) Cmax in rat at 5 mg/kg, po; format: ADME, organism-based; set-up: dose 5 mg/kg, route oral; details: in vivo
# Cytochrome P450 3A4 = Cytochrome P450 3A4 (Homo sapiens, UniProt P08684); assay: Inhibition of CYP3A4; format: ADME
# Cytochrome P450 3A4, sequence (P08684 whole entry): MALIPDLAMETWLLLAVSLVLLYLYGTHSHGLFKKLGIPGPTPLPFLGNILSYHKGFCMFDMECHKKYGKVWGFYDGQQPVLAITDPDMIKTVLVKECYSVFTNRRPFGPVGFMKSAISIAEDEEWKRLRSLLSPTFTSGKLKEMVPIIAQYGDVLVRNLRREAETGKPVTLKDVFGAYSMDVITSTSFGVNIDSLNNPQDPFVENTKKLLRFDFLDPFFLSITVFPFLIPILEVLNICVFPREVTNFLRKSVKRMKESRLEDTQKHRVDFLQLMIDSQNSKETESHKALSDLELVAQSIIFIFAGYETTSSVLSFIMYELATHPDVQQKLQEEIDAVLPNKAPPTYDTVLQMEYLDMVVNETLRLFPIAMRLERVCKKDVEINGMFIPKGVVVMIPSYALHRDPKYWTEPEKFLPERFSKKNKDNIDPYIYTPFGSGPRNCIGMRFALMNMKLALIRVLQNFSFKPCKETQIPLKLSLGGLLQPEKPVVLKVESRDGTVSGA
# [5] = (§3) Half life in rat at 1 mg/kg, iv; format: ADME, organism-based; set-up: dose 1 mg/kg, route intravenous; details: in vivo
# [6] = Half life in monkey liver microsomes; format: ADME, Macaca mulatta, Microsome; details: rhesus monkey
# [7] = Half life in dog liver microsomes; format: ADME, Canis lupus familiaris, Microsome
# [8] = Half life in rat liver microsomes; format: ADME, Microsome
# [9] = Ratio of drug level in brain to plasma in rat at 10 mg/kg, ip after 6 hrs; format: ADME, organism-based; set-up: dose 10 mg/kg, route intraperitoneal; details: for Kp at 6 h: brain/plasma, read-out: BPR
# [10] = (§4) Volume of distribution in rat at 1 mg/kg, iv; format: ADME, organism-based; set-up: dose 1 mg/kg, route intravenous; details: in vivo
# Histamine H3 receptor [11] = target: T2, Histamine H3 receptor (Homo sapiens, UniProt Q9Y5N1); assay: Inverse agonist activity at human histamine H3 receptor by [35S]GTPgammaS binding assay; format: functional
# T2 sequence (Q9Y5N1 whole entry): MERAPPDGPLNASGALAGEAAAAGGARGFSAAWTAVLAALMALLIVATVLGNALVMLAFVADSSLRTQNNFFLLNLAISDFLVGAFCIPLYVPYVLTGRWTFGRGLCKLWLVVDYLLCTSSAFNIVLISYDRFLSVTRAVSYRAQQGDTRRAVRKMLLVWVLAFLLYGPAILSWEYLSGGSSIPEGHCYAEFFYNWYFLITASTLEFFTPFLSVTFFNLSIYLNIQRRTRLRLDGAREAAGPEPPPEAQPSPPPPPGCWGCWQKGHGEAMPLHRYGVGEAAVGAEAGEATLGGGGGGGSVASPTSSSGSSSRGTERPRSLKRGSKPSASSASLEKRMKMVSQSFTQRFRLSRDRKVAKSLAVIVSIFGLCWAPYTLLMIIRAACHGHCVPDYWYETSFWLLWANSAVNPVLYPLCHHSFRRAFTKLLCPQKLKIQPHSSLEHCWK
# Histamine H3 receptor [12] = target: T2, Histamine H3 receptor; assay: Displacement of [3H]NAMH from human histamine H3 receptor expressed in CHO cells; format: cell-based
# [13] = (§5) AUC in rat at 5 mg/kg, po; format: ADME, organism-based, Plasma; set-up: dose 5 mg/kg, route oral; details: plasma
# Cytochrome P450 2C19 = Cytochrome P450 2C19 (Homo sapiens, UniProt P33261); assay: Inhibition of CYP2C19; format: ADME
# Cytochrome P450 2C19, sequence (P33261 whole entry): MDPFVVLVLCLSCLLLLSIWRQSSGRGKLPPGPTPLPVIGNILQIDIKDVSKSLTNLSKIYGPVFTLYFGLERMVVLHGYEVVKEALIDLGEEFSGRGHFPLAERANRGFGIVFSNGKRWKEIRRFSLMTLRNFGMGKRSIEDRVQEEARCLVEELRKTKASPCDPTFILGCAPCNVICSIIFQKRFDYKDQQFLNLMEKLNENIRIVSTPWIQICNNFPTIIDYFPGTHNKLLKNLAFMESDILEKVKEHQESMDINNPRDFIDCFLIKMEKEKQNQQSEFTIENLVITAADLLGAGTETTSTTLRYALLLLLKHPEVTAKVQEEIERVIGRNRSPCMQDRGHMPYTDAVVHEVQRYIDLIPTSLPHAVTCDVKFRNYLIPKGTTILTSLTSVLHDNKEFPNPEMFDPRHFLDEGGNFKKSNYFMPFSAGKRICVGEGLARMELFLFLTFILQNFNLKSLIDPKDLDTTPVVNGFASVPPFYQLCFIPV
# Cytochrome P450 2D6 = Cytochrome P450 2D6 (Homo sapiens, UniProt P10635); assay: Inhibition of CYP2D6; format: ADME
# Cytochrome P450 2D6, sequence (P10635 whole entry): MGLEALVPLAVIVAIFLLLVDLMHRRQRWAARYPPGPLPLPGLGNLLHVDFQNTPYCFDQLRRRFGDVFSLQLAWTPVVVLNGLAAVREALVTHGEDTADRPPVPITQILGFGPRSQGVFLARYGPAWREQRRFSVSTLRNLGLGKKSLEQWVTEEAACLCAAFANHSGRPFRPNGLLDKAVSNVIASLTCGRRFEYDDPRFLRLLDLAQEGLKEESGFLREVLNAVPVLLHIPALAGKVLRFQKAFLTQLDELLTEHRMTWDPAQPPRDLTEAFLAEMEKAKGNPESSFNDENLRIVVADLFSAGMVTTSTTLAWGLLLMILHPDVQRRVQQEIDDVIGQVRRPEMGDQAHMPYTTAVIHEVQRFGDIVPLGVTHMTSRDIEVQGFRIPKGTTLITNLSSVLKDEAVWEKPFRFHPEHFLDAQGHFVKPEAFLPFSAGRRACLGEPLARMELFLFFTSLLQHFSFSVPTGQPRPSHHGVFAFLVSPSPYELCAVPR
# Histamine H3 receptor [14] = target: Histamine H3 receptor (Rattus norvegicus, UniProt Q9QYN8); assay: Displacement of [3H]NAMH from rat histamine H3 receptor expressed in CHO cells; format: cell-based
# Histamine H3 receptor (Rattus norvegicus, UniProt Q9QYN8), sequence (Q9QYN8 whole entry): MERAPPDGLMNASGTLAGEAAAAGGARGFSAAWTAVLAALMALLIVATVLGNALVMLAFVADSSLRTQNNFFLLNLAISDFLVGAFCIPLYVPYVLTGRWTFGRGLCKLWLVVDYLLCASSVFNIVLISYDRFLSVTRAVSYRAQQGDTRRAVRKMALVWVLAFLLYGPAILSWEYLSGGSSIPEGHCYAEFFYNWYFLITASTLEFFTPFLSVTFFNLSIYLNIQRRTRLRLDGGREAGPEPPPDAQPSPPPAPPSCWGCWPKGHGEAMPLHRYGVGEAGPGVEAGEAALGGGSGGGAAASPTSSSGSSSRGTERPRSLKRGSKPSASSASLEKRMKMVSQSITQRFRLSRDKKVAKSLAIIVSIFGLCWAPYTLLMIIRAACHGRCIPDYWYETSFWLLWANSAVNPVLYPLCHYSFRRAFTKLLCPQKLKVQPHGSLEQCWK
# Cytochrome P450 2C9 = Cytochrome P450 2C9 (Homo sapiens, UniProt P11712); assay: Inhibition of CYP2C9; format: ADME
# Cytochrome P450 2C9, sequence (P11712 whole entry): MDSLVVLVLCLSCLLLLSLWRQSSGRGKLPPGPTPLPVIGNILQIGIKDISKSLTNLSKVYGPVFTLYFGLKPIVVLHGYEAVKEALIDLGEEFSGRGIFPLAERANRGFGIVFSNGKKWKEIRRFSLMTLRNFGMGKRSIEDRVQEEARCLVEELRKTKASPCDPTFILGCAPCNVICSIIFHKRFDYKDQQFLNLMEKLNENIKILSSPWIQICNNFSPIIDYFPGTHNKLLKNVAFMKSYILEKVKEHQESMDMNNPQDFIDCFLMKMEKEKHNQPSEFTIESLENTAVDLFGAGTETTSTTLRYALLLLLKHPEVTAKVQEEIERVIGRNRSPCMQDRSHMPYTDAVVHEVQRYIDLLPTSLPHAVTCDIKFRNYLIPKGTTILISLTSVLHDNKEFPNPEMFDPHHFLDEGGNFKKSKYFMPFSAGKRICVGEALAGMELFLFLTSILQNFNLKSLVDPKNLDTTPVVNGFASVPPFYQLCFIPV
# Rattus norvegicus [15] = assay: as §1; format: ADME, organism-based; details: in vivo
# Rattus norvegicus [16] = assay: as §2; format: ADME, organism-based; set-up: dose 5 mg/kg, route oral; details: in vivo
# Rattus norvegicus [17] = assay: as §3; format: ADME, organism-based; set-up: dose 1 mg/kg, route intravenous; details: in vivo
# Rattus norvegicus [18] = assay: as §4; format: ADME, organism-based; set-up: dose 1 mg/kg, route intravenous; details: in vivo
# Rattus norvegicus [19] = assay: as §5; format: ADME, organism-based, Plasma; set-up: dose 5 mg/kg, route oral; details: in vivo
# Histamine H3 receptor [20] = target: T2, Histamine H3 receptor; assay: Antagonist activity at human histamine H3 receptor by [35S]GTPgammaS binding assay; format: functional
# [21] = Drug uptake in rat brain at 5 mg/kg, po after 6 hrs; format: ADME, organism-based; set-up: dose 5 mg/kg, route oral; details: read-out: Drug uptake
# [22] = Clearance in rat at 1 mg/kg, iv; format: ADME, organism-based; set-up: dose 1 mg/kg, route intravenous; details: in vivo
# Rattus norvegicus [23] = assay: Inhibition of RAMH-induced dipsogenia in po dosed rat; format: functional
# [24] = Apparent permeability of the compound in human Caco2 cells; format: ADME, cell-based; details: Caco-2
# [25] = Solubility of the compound in water at pH 7.4; format: physicochemical
# [26] = target: T3, Muscarinic acetylcholine receptor M2 (Homo sapiens) (UniProt P08172); assay: Inhibition of muscarinic M2 receptor at 10 uM
# T3 sequence (whole entry): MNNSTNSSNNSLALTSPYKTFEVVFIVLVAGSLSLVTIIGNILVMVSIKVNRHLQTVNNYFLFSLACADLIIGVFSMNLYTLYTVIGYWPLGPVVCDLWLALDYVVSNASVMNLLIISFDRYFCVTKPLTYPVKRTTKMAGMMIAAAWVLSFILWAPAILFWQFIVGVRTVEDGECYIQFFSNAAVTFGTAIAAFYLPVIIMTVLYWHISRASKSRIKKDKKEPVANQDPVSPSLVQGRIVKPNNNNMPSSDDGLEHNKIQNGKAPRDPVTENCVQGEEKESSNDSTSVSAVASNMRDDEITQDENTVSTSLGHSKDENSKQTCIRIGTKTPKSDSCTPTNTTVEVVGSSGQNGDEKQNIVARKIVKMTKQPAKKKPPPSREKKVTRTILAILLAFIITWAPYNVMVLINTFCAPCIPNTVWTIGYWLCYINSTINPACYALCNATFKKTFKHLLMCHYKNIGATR
# [27] = Solubility of the compound in water at pH 2; format: physicochemical
structure (smiles),measurement,setting,value
CC1CC(=O)NN=C1c1ccc(OCCCN2CCC[C@H]2C)cc1 (stereo in doubt; 19a) [listing 1 of 2 here],bioavailability,[1],40%
same,half-life,[2],> 40 min
same,IC50,Cytochrome P450 1A2,> 30000 nM
same,half-life,[3],> 40 min
same,Cmax,[4],301 ng/mL
same,IC50,Cytochrome P450 3A4,> 30000 nM
same,half-life,[5],108 min
same,half-life,[6],> 40 min
same,half-life,[7],> 40 min
same,half-life,[8],> 40 min
same,Kp at 6 h,[9],1.8
same,Vd,[10],3.5 L/kg
same,EC50,Histamine H3 receptor [11],1.3 nM
same,Ki,Histamine H3 receptor [12],6.8 nM
same,AUC,[13],1360 ng·h/mL
same,IC50,Cytochrome P450 2C19,> 30000 nM
same,IC50,Cytochrome P450 2D6,> 30000 nM
same,Ki,Histamine H3 receptor [14],29 nM
same,IC50,Cytochrome P450 2C9,> 30000 nM
C[C@H]1CCCN1CCCOc1ccc(C2=NNC(=O)CC2)cc1,Ki,Histamine H3 receptor [12],37 nM
same,Ki,Histamine H3 receptor [14],114 nM
C[C@@H]1CCCN1CCCOc1ccc(C2=NNC(=O)CC2c2ccccn2)cc1 (mixture of isomers),Ki,Histamine H3 receptor [12],9.9 nM
same,Ki,Histamine H3 receptor [14],21 nM
O=C1CCC(c2ccc(OCCCN3CCCCC3)cc2)=NN1CC(F)(F)F,Ki,Histamine H3 receptor [12],38 nM
same,Ki,Histamine H3 receptor [14],62 nM
C[C@@H]1CCCN1CCCOc1ccc(C2=NNC(=O)CC2(C)C)cc1,Ki,Histamine H3 receptor [12],20 nM
same,Ki,Histamine H3 receptor [14],59 nM
CC1CC(=O)NN=C1c1ccc(OCCCN2CCC[C@H]2C)cc1 (mixture of isomers),Ki,Histamine H3 receptor [12],5.6 nM
same,Ki,Histamine H3 receptor [14],18 nM
C[C@@H]1CCCN1CCCOc1ccc(C2=NNC(=O)C(c3ccccn3)C2)cc1 (mixture of isomers),Ki,Histamine H3 receptor [12],8.8 nM
same,Ki,Histamine H3 receptor [14],42 nM
C[C@@H]1CCCN1CCCOc1ccc(C2=NN(CC(F)(F)F)C(=O)CC2)cc1,Ki,Histamine H3 receptor [12],5 nM
same,Ki,Histamine H3 receptor [14],10 nM
"CC1CC(=O)NN=C1c1ccc(OCCCN2CCC[C@H]2C)cc1 (single isomer, unassigned; isomer 2) [listing 1 of 2 here]",F,Rattus norvegicus [15],52%
same,IC50,Cytochrome P450 1A2,> 30000 nM
same,Cmax,Rattus norvegicus [16],274 ng/mL
same,IC50,Cytochrome P450 3A4,> 30000 nM
same,t1/2,Rattus norvegicus [17],90 min
same,BPR,"[9]; brain, 6 h",1.9
same,Vd,Rattus norvegicus [18],3.4 L/kg
same,EC50,Histamine H3 receptor [11],1.4 nM
same,Ki,Histamine H3 receptor [12],4.7 nM
same,AUC,Rattus norvegicus [19],1327 ng·h/mL
same,IC50,Cytochrome P450 2C19,> 30000 nM
same,IC50,Cytochrome P450 2D6,> 30000 nM
same,Ki,Histamine H3 receptor [14],20 nM
same,IC50,Cytochrome P450 2C9,> 30000 nM
C[C@@H]1CCCN1CCCOc1ccc(C2=NN(c3ccccn3)C(=O)CC2)cc1,Ki,Histamine H3 receptor [12],12 nM
same,Ki,Histamine H3 receptor [14],42 nM
"CC1CC(=O)NN=C1c1ccc(OCCCN2CCC[C@H]2C)cc1 (single isomer, unassigned; isomer 2) [listing 2 of 2 here]",Kb,Histamine H3 receptor [20],0.54 nM
CC1CC(=O)NN=C1c1ccc(OCCCN2CCCC2)cc1 (racemic),Ki,Histamine H3 receptor [12],83 nM
same,Ki,Histamine H3 receptor [14],85 nM
C[C@@H]1CCCN1CCCOc1ccc(C2=NN(c3ccccc3)C(=O)CC2)cc1,Ki,Histamine H3 receptor [12],10 nM
same,Ki,Histamine H3 receptor [14],16 nM
C[C@@H]1CCCN1CCCOc1ccc(C2=NN(C)C(=O)CC2)cc1,Ki,Histamine H3 receptor [12],5 nM
same,Ki,Histamine H3 receptor [14],16 nM
CC(C)N1N=C(c2ccc(OCCCN3CCC[C@H]3C)cc2)CCC1=O,Ki,Histamine H3 receptor [12],9 nM
same,Ki,Histamine H3 receptor [14],63 nM
CC1CC(=O)NN=C1c1ccc(OCCCN2CCCCC2)cc1 (racemic),Ki,Histamine H3 receptor [12],21 nM
same,Ki,Histamine H3 receptor [14],28 nM
CC1CC(=O)NN=C1c1ccc(OCCCN2CCC[C@H]2C)cc1 (stereo in doubt; 19a) [listing 2 of 2 here],Kb,Histamine H3 receptor [20],0.68 nM
C[C@@H]1CCCN1CCCOc1ccc(C2=NN(Cc3ccccc3)C(=O)CC2)cc1,Ki,Histamine H3 receptor [12],2 nM
same,Ki,Histamine H3 receptor [14],25 nM
O=C1CCC(c2ccc(OCCCN3CCCC3)cc2)=NN1,Ki,Histamine H3 receptor [12],74 nM
same,Ki,Histamine H3 receptor [14],256 nM
C[C@@H]1CCCN1CCCOc1ccc(C2=NNC(=O)CC2)cc1,concentration at 6 h,[21],2200 nM
same,bioavailability,[1],19%
same,half-life,[2],> 40 min
same,IC50,Cytochrome P450 1A2,> 30000 nM
same,half-life,[3],> 40 min
same,Cmax,[4],376 ng/mL
same,IC50,Cytochrome P450 3A4,> 11000 nM
same,half-life,[5],66 min
same,clearance,[22],8.5 mL/min/kg
same,half-life,[6],> 40 min
same,half-life,[7],> 40 min
same,half-life,[8],> 40 min
same,Kp at 6 h,[9],3.1
same,ED50,Rattus norvegicus [23],0.06 mg/kg
same,inhibition,Rattus norvegicus [23],Dose-dependent effect
same,Papp,[24],11.4 ×10⁻⁶ cm/s
same,solubility,[25],> 2000 µg/mL
same,Vd,[10],0.8 L/kg
same,EC50,Histamine H3 receptor [11],0.7 nM
same,Ki,Histamine H3 receptor [12],3.2 nM
same,AUC,[13],1830 ng·h/mL
same,inhibition,[26],60%
same,IC50,Cytochrome P450 2C19,> 30000 nM
same,IC50,Cytochrome P450 2D6,> 11000 nM
same,Ki,Histamine H3 receptor [14],8.8 nM
same,IC50,Cytochrome P450 2C9,> 30000 nM
same,solubility,[27],> 2000 µg/mL
CC1CC(c2ccc(OCCCN3CCC[C@H]3C)cc2)=NNC1=O (mixture of isomers),Ki,Histamine H3 receptor [12],1.9 nM
same,Ki,Histamine H3 receptor [14],4 nM
